“Also recorded” adds a separate entry of the source. Where two headings read alike, the source gives them in different places. Values belong to the molecule of their own block, whether it stands above or below them.
Columns and labels:
[1] = tested on: MTAP-deleted lung cancer cells (A549); assay: Cell proliferation of MTAP-deleted A549 cells by MTT assay, mizoribine base pre-treatment then L-alanosine; assay type: cell-based; details: Homo sapiens
Protocol: MTAP-deleted lung cancer cells (A549) were pre-treated for 24 hours with control vehicle (square), or the indicated concentrations of mizoribine-base (10 μM, 25 μM and 50 μM). After 24 hours in culture L-alanosine was added at decreasing concentrations (½ dilutions) starting at 40 μM. Cell were then incubated for an additional 48 hours. Cell proliferation was tested by the MTT assay. As indicated by FIG. 4, the IC50 and IC90 (amount of drug needed to block proliferation by 50% or 90%) of L-alanosine declines in the presence of mizoribine base.

CLL cells [2] = assay: CLL cell viability by MTT dye assay; assay type: cell-based; details: Homo sapiens, 24 h, read-out: cell viability
Protocol: Indanocine is commercially available from Calbiochem (Cat. No. 402080). Leoni L. M., et al., J Natl Cancer Inst. 92:217-224 (2000). Hua X. H., et al., Cancer Res. 61:7248-7254 (2001). CLL cells were isolated and cultured as described above. CLL cells at a density of 1×10^6 ml were incubated for 24 hours in RPMI 1640 medium supplemented with 10% fetal bovine serum in the presence of 1 μM indanocine (abbreviated 178) and either 0, 1, or 10 μM mizoribine. Cell viability was assessed by the MTT [3-(4,5-dimethylthiazol-2-yl)-2,5-diphenyltetrazolium bromide) dye assay.

[3] = tested on: MTAP-deleted chronic myelogenous leukemia cells (K562); assay: Cell proliferation of MTAP-deleted K562 cells by MTT dye assay; assay type: cell-based; details: read-out: IC50 (amount of drug needed to block proliferation by 50%)
Protocol: MTAP-deleted chronic myelogenous leukemia cells (K562) were pre-treated for the indicated times (24, 48, 72 hours) with concentrations of mizoribine (squares) or mizoribine base (triangles) from 200 μM to 0.5 μM. At the end of the incubation time cell proliferation was tested by the MTT dye assay. As indicated by FIG. 3, the IC50 (amount of drug needed to block proliferation by 50%) of mizoribine or its base progressively declines as the time of exposure to drug increases. After 48 hours of incubation with mizoribine or mizoribine base, the IC50 for the drug is approximately 100 micromolar. After 72 hours of incubation with mizoribine or mizoribine base, the IC50 for the drug is approximately 10 micromolar.

[4] = in vivo; cited from earlier work
[5] = tested on: normal PBL (peripheral blood mononuclear cells); assay: α-tubulin polymerization assay in normal PBL (soluble vs particulate fraction, immunoblot); assay type: cell-based, human; details: normal resting PBL, paclitaxel for one hour
Protocol: (§1) Peripheral blood from CLL patients or normal donors was layered on top of Ficoll-Paque Plus (Pharmacia, NJ) and centrifuged at 1200×g for twenty minutes. The enriched peripheral blood mononuclear cells (PBL) were washed several times with Ca++, Mg++-free HBSS.
(§2) All primary cells were cultured in RPMI 1640 medium with 20% fetal bovine serum (regular medium) at a density of 2-5×10^6 cell/ml. In some cases, the PBL were stimulated for 24 hours with 1 μg/ml anti-CD3 and anti-CD28 antibodies (Alexis, San Diego, Calif.) prior to immunoblot analysis.
(§3) α-tubulin Polymerization Assay. For each data point, 2×10^6 of cells were incubated in 2 ml of regular medium containing drugs for various periods of time. The cells were then washed twice at room temperature, and resuspended in 50 μl of α-tubulin extraction buffer (1 mM MgC2, 2 m MEGTA, 0.5% NP-40, 20 mM Tris-HCl, pH=6.8) supplemented with 2 mM phenylmethysulfonyl fluoride, and a protease inhibitor cocktail (Sigma). After a brief but vigorous vortex, the lysates were incubated at room temperature for 5 minutes, and then centrifuged at 16,000×g for 5 minutes to separate the soluble from polymerized α-tubulin. The supernatant and pellet fractions were resolved on 10-20% pre-cast tris-glycine gels (Novex, San Diego, Calif.) and then subjected to immune blotting with a specific anti-α-tubulin antibody. […]

activated PBL = assay: α-tubulin polymerization assay in PBL activated with anti-CD3 and anti-CD28 antibodies; assay type: cell-based, human; details: PBL activated 24 hrs with anti-CD3 and anti-CD28, paclitaxel for one hour
Protocol: as §1, §2, §3

CLL cells [6] = assay: α-tubulin polymerization assay in CLL cells; assay type: cell-based, human; details: paclitaxel
Protocol: Lymphocyte Cultures. The Institutional Review Board of the University of California, San Diego approved this study, and all patients gave informed written consent to participation. Subjects had CLL according to National Cancer Institute (NCI) criteria of any Rai stage. None of the patients were in active chemotherapeutic treatments. Flow cytometric analysis determined that all specimens contained more than 90% CD5+CD19+B cells.
as §1, §2
α-tubulin Polymerization Assay. For each data point, 2×10^6 of cells were incubated in 2 ml of regular medium containing drugs for various periods of time. The cells were then washed twice at room temperature, and resuspended in 50 μl of α-tubulin extraction buffer (1 mM MgC2, 2 m MEGTA, 0.5% NP-40, 20 mM Tris-HCl, pH=6.8) supplemented with 2 mM phenylmethysulfonyl fluoride, and a protease inhibitor cocktail (Sigma). […]

[7] = A549, 48 h, A549, without mizoribine base, 48 hours L-alanosine
[8] = A549, A549, 24 hours pre-treatment with 10 micromolar mizoribine base
[9] = A549, A549, 24 hours pre-treatment with 25 micromolar mizoribine base
[10] = A549, A549, 24 hours pre-treatment with 50 micromolar mizoribine base

Structure (SMILES): N[C@@H](CN(O)N=O)C(=O)O [L-alanosine]
IC50 [1, 7]: 500 nM | IC90 [1, 7]: 20 µM | IC50 [1, 8]: 500 nM | IC90 [1, 8]: 9 µM | IC50 [1, 9]: 250 nM | IC90 [1, 9]: 6 µM | IC50 [1, 10]: 150 nM | IC90 [1, 10]: 4 µM

Structure (SMILES): COc1cc2c(c(N)c1OC)C(=O)/C(=C\c1cc(C)c(O)c(C)c1)C2 [indanocine]
viability at 1 µM (CLL cells [2]): 24%

IC50 ([3]; K562, 48 hours of incubation): ~100 µM | IC50 ([3]; K562, 72 hours of incubation): ~10 µM
Structure (SMILES): NC(=O)c1[nH]cnc1O [mizoribine base, mizoribine aglycone]

IC50 ([3]; Homo sapiens, K562, 48 hours of incubation): ~100 µM | IC50 ([3]; Homo sapiens, K562, 72 hours of incubation): ~10 µM
Structure (SMILES): NC(=O)c1ncn([C@@H]2O[C@H](CO)[C@@H](O)[C@H]2O)c1O [mizoribine]
viability at 1 µM (CLL cells [2]): 55% | viability at 10 µM (CLL cells [2]): 45% | plasma half life [4]: a few hours

Structure (SMILES): CC(=O)O[C@H]1C(=O)[C@@]2(C)[C@H]([C@H](OC(=O)c3ccccc3)[C@]3(O)C[C@H](OC(=O)[C@H](O)[C@@H](NC(=O)c4ccccc4)c4ccccc4)C(C)=C1C3(C)C)[C@]1(OC(C)=O)CO[C@@H]1C[C@@H]2O [paclitaxel]
α-tubulin in the particulate fraction after treatment [5]: only a minimal increase of α-tubulin in the particulate fraction; also recorded: did not change this pattern | α-tubulin in the particulate fraction after treatment (activated PBL): most of the α-tubulin shifted to the particulate fraction; also recorded: a shift of α-tubulin to the particulate-bound fraction | α-tubulin in the particulate fraction after treatment (CLL cells [6]): nearly complete relocalization of α-tubulin to the particulate fraction

Source: patent US20040127435A1, “Uses for inhibitors of inosine monophosphate dehydrogenase” (REGENTS OF THE UNIVERSITY OF CALIFORNIA, priority 2002, published 2004)
